Measurements from patent US12343368B2, “Cleome droserifolia extract and therapeutic or cosmetic use thereof” (ANPJ HEALTHCARE, priority 2019, dated 2025).

Tests used:
NCTC clone 929 cell line = assay: Antioxidant activity, cell viability (MTT) after hydrogen peroxide stress; format: cell-based; settings: 0.56 mg/ml; for Absorbance Mean: 570 nm
[1] = as above; format: cell-based; settings: mouse, NCTC clone 929 cells, Without H2O2, read-out: Cellular viability (%)
citrated ovine plasma = assay: Coagulant activity in vitro (coagulation time, coagulometer); format: biochemical
Experimental: The material used is described as follows: • The 6th international standard for unfractionated heparin (WHO 07; 328) • Activated cephaloplastin reagent Dade® Actin®—Siemens • Calcium chloride—Siemens®. • Thermo Scientific coagulometer • Citrated ovine plasma 8.7%. • Aqueous extract of lyophilized Cleome droserifolia The operating protocol is described as follows: The lyophilized extract was dissolved in ultrapure water to obtain a stock concentration of 2 mg/ml. Dilution was carried out to obtain a concentration of 0.6 mg/ml. In a first experiment, 100 μl of each of the following solutions was added to the cuvettes of the coagulometer (n=2): • Lyophilisate solution concentrated at 0.6 mg/ml, • Heparin solution at a concentration of 0.6 IU/ml • Physiological solution for the control group, • Then, 100 μl of sheep plasma was added to all the wells. • After 2 minutes, 100 μl of reactant activated with Cephalosplatin Cade® Actin was added. • After 5 minutes of incubation, 100 μl of calcium chloride solution were added and the coagulation times were recorded.

| Compound | viability at 25 µM (NCTC clone 929 cell line; NCTC clone 929, With H2O2 (25 μM), read-out: Cellular viability (%)) [%] | Absorbance Mean (NCTC clone 929 cell line; With H2O2 (25 μM)) | Absorbance Mean (NCTC clone 929 cell line; Without H2O2) | viability at 24 h, 0.56 mg/ml [1] [%] | coagulation time (citrated ovine plasma; heparin) [s] | coagulation time (citrated ovine plasma; heparin 0.6 IU/ml) [s] |
| --- | --- | --- | --- | --- | --- | --- |
| O=C1O[C@H]([C@@H](O)CO)C(O)=C1O [ascorbic acid] | 74.4 | 0.3564 | 0.3719 | 77.6 |  |  |
| Heparin |  |  |  |  | 54.3 | 54.3 |
